# Test results reported in ChEMBL document CHEMBL3352227, “Synthesis, antimycobacterial and antibacterial evaluation of l-[(1R, 2S)-2-fluorocyclopropyl]fluoroquinolone derivatives containing an oxime functional moiety” (Eur J Med Chem, 2014).
# System: Klebsiella pneumoniae
# Assay: Antibacterial activity against extended-spectrum beta-lactamase producin Klebsiella pneumoniae 12-4 after 18 to 24 hrs by standard twofold serial dilution method
# Format: functional
row,SMILES,MIC [µg/mL]
1,CO/N=C1/CCN(c2nc3c(cc2F)c(=O)c(C(=O)O)cn3[C@@H]2C[C@@H]2F)CC1N (some centres not stated),64

# System: Pseudomonas aeruginosa
# Assay: Antibacterial activity against Pseudomonas aeruginosa 12-12 after 18 to 24 hrs by standard twofold serial dilution method
# Format: functional
row,SMILES,MIC [µg/mL]
1,CO/N=C1/CCN(c2nc3c(cc2F)c(=O)c(C(=O)O)cn3[C@@H]2C[C@@H]2F)CC1N (some centres not stated),16

# System: Klebsiella pneumoniae
# Assay: Antibacterial activity against extended-spectrum beta-lactamase producin Klebsiella pneumoniae 12-7 after 18 to 24 hrs by standard twofold serial dilution method
# Format: functional
row,SMILES,MIC [µg/mL]
1,CO/N=C1/CCN(c2nc3c(cc2F)c(=O)c(C(=O)O)cn3[C@@H]2C[C@@H]2F)CC1N (some centres not stated),32

# System: Staphylococcus aureus
# Assay: Antibacterial activity against methicillin-resistant Staphylococcus aureus 12-4 after 18 to 24 hrs by standard twofold serial dilution method
# Format: functional
row,SMILES,MIC [µg/mL]
1,CO/N=C1/CCN(c2nc3c(cc2F)c(=O)c(C(=O)O)cn3[C@@H]2C[C@@H]2F)CC1N (some centres not stated),> 128

# System: Mycobacterium tuberculosis
# Assay: Antimycobacterial activity against Mycobacterium tuberculosis H37Rv ATCC 27294 by MABA method
# Format: functional
row,SMILES,MIC [µg/mL]
1,CO/N=C1/CCN(c2nc3c(cc2F)c(=O)c(C(=O)O)cn3[C@@H]2C[C@@H]2F)CC1N (some centres not stated),4

# System: Klebsiella pneumoniae
# Assay: Antibacterial activity against Klebsiella pneumoniae 12-1 after 18 to 24 hrs by standard twofold serial dilution method
# Format: functional
row,SMILES,MIC [µg/mL]
1,CO/N=C1/CCN(c2nc3c(cc2F)c(=O)c(C(=O)O)cn3[C@@H]2C[C@@H]2F)CC1N (some centres not stated),2

# System: Klebsiella pneumoniae
# Assay: Antibacterial activity against extended-spectrum beta-lactamase producin Klebsiella pneumoniae 12-3 after 18 to 24 hrs by standard twofold serial dilution method
# Format: functional
row,SMILES,MIC [µg/mL]
1,CO/N=C1/CCN(c2nc3c(cc2F)c(=O)c(C(=O)O)cn3[C@@H]2C[C@@H]2F)CC1N (some centres not stated),> 128

# System: Escherichia coli
# Assay: Antibacterial activity against extended-spectrum beta-lactamase producing Escherichia coli 12-3 after 18 to 24 hrs by standard twofold serial dilution method
# Format: functional
row,SMILES,MIC [µg/mL]
1,CO/N=C1/CCN(c2nc3c(cc2F)c(=O)c(C(=O)O)cn3[C@@H]2C[C@@H]2F)CC1N (some centres not stated),16

# System: Staphylococcus aureus
# Assay: Antibacterial activity against methicillin-sensitive Staphylococcus aureus 12-1 after 18 to 24 hrs by standard twofold serial dilution method
# Format: functional
row,SMILES,MIC [µg/mL]
1,CO/N=C1/CCN(c2nc3c(cc2F)c(=O)c(C(=O)O)cn3[C@@H]2C[C@@H]2F)CC1N (some centres not stated),2

# System: Staphylococcus aureus
# Assay: Antibacterial activity against methicillin-resistant Staphylococcus aureus 12-5 after 18 to 24 hrs by standard twofold serial dilution method
# Format: functional
row,SMILES,MIC [µg/mL]
1,CO/N=C1/CCN(c2nc3c(cc2F)c(=O)c(C(=O)O)cn3[C@@H]2C[C@@H]2F)CC1N (some centres not stated),> 128

# System: Staphylococcus aureus
# Assay: Antibacterial activity against methicillin-sensitive Staphylococcus aureus 12-4 after 18 to 24 hrs by standard twofold serial dilution method
# Format: functional
row,SMILES,MIC [µg/mL]
1,CO/N=C1/CCN(c2nc3c(cc2F)c(=O)c(C(=O)O)cn3[C@@H]2C[C@@H]2F)CC1N (some centres not stated),1

# System: Escherichia coli
# Assay: Antibacterial activity against Escherichia coli 12-1 after 18 to 24 hrs by standard twofold serial dilution method
# Format: functional
row,SMILES,MIC [µg/mL]
1,CO/N=C1/CCN(c2nc3c(cc2F)c(=O)c(C(=O)O)cn3[C@@H]2C[C@@H]2F)CC1N (some centres not stated),8

# System: Staphylococcus epidermidis
# Assay: Antibacterial activity against methicillin-sensitive Staphylococcus epidermidis 12-6 after 18 to 24 hrs by standard twofold serial dilution method
# Format: functional
row,SMILES,MIC [µg/mL]
1,CO/N=C1/CCN(c2nc3c(cc2F)c(=O)c(C(=O)O)cn3[C@@H]2C[C@@H]2F)CC1N (some centres not stated),1

# System: Staphylococcus aureus
# Assay: Antibacterial activity against methicillin-sensitive Staphylococcus aureus 12-5 after 18 to 24 hrs by standard twofold serial dilution method
# Format: functional
row,SMILES,MIC [µg/mL]
1,CO/N=C1/CCN(c2nc3c(cc2F)c(=O)c(C(=O)O)cn3[C@@H]2C[C@@H]2F)CC1N (some centres not stated),2

# System: Staphylococcus epidermidis
# Assay: Antibacterial activity against methicillin-sensitive Staphylococcus epidermidis 12-1 after 18 to 24 hrs by standard twofold serial dilution method
# Format: functional
row,SMILES,MIC [µg/mL]
1,CO/N=C1/CCN(c2nc3c(cc2F)c(=O)c(C(=O)O)cn3[C@@H]2C[C@@H]2F)CC1N (some centres not stated),1

# System: Klebsiella pneumoniae
# Assay: Antibacterial activity against Klebsiella pneumoniae 12-4 after 18 to 24 hrs by standard twofold serial dilution method
# Format: functional
row,SMILES,MIC [µg/mL]
1,CO/N=C1/CCN(c2nc3c(cc2F)c(=O)c(C(=O)O)cn3[C@@H]2C[C@@H]2F)CC1N (some centres not stated),1

# System: Klebsiella pneumoniae
# Assay: Antibacterial activity against Klebsiella pneumoniae 12-2 after 18 to 24 hrs by standard twofold serial dilution method
# Format: functional
row,SMILES,MIC [µg/mL]
1,CO/N=C1/CCN(c2nc3c(cc2F)c(=O)c(C(=O)O)cn3[C@@H]2C[C@@H]2F)CC1N (some centres not stated),1

# System: Pseudomonas aeruginosa
# Assay: Antibacterial activity against Pseudomonas aeruginosa 12-14 after 18 to 24 hrs by standard twofold serial dilution method
# Format: functional
row,SMILES,MIC [µg/mL]
1,CO/N=C1/CCN(c2nc3c(cc2F)c(=O)c(C(=O)O)cn3[C@@H]2C[C@@H]2F)CC1N (some centres not stated),128

# System: Staphylococcus epidermidis
# Assay: Antibacterial activity against methicillin-sensitive Staphylococcus epidermidis 12-8 after 18 to 24 hrs by standard twofold serial dilution method
# Format: functional
row,SMILES,MIC [µg/mL]
1,CO/N=C1/CCN(c2nc3c(cc2F)c(=O)c(C(=O)O)cn3[C@@H]2C[C@@H]2F)CC1N (some centres not stated),< 0.008

# System: Staphylococcus epidermidis
# Assay: Antibacterial activity against methicillin-resistant Staphylococcus epidermidis 12-6 after 18 to 24 hrs by standard twofold serial dilution method
# Format: functional
row,SMILES,MIC [µg/mL]
1,CO/N=C1/CCN(c2nc3c(cc2F)c(=O)c(C(=O)O)cn3[C@@H]2C[C@@H]2F)CC1N (some centres not stated),1

# System: Escherichia coli
# Assay: Antibacterial activity against extended-spectrum beta-lactamase producing Escherichia coli 12-14 after 18 to 24 hrs by standard twofold serial dilution method
# Format: functional
row,SMILES,MIC [µg/mL]
1,CO/N=C1/CCN(c2nc3c(cc2F)c(=O)c(C(=O)O)cn3[C@@H]2C[C@@H]2F)CC1N (some centres not stated),> 128

# System: Staphylococcus epidermidis
# Assay: Antibacterial activity against methicillin-sensitive Staphylococcus epidermidis 12-3 after 18 to 24 hrs by standard twofold serial dilution method
# Format: functional
row,SMILES,MIC [µg/mL]
1,CO/N=C1/CCN(c2nc3c(cc2F)c(=O)c(C(=O)O)cn3[C@@H]2C[C@@H]2F)CC1N (some centres not stated),< 0.008

# System: Staphylococcus aureus
# Assay: Antibacterial activity against methicillin-resistant Staphylococcus aureus 12-2 after 18 to 24 hrs by standard twofold serial dilution method
# Format: functional
row,SMILES,MIC [µg/mL]
1,CO/N=C1/CCN(c2nc3c(cc2F)c(=O)c(C(=O)O)cn3[C@@H]2C[C@@H]2F)CC1N (some centres not stated),> 128

# System: Escherichia coli
# Assay: Antibacterial activity against Escherichia coli ATCC 25922 after 18 to 24 hrs by standard twofold serial dilution method
# Format: functional
row,SMILES,MIC [µg/mL]
1,CO/N=C1/CCN(c2nc3c(cc2F)c(=O)c(C(=O)O)cn3[C@@H]2C[C@@H]2F)CC1N (some centres not stated),0.25

# System: Escherichia coli
# Assay: Antibacterial activity against extended-spectrum beta-lactamase producing Escherichia coli 12-15 after 18 to 24 hrs by standard twofold serial dilution method
# Format: functional
row,SMILES,MIC [µg/mL]
1,CO/N=C1/CCN(c2nc3c(cc2F)c(=O)c(C(=O)O)cn3[C@@H]2C[C@@H]2F)CC1N (some centres not stated),> 128

# System: Staphylococcus aureus
# Assay: Antibacterial activity against Staphylococcus aureus ATCC 25923 after 18 to 24 hrs by standard twofold serial dilution method
# Format: functional
row,SMILES,MIC [µg/mL]
1,CO/N=C1/CCN(c2nc3c(cc2F)c(=O)c(C(=O)O)cn3[C@@H]2C[C@@H]2F)CC1N (some centres not stated),1

# System: Streptococcus pneumoniae
# Assay: Antibacterial activity against Streptococcus pneumoniae 12-18 after 18 to 24 hrs by standard twofold serial dilution method
# Format: functional
row,SMILES,MIC [µg/mL]
1,CO/N=C1/CCN(c2nc3c(cc2F)c(=O)c(C(=O)O)cn3[C@@H]2C[C@@H]2F)CC1N (some centres not stated),4

# System: Klebsiella pneumoniae
# Assay: Antibacterial activity against extended-spectrum beta-lactamase producin Klebsiella pneumoniae 12-14 after 18 to 24 hrs by standard twofold serial dilution method
# Format: functional
row,SMILES,MIC [µg/mL]
1,CO/N=C1/CCN(c2nc3c(cc2F)c(=O)c(C(=O)O)cn3[C@@H]2C[C@@H]2F)CC1N (some centres not stated),> 128

# System: Escherichia coli
# Assay: Antibacterial activity against extended-spectrum beta-lactamase producing Escherichia coli 12-2 after 18 to 24 hrs by standard twofold serial dilution method
# Format: functional
row,SMILES,MIC [µg/mL]
1,CO/N=C1/CCN(c2nc3c(cc2F)c(=O)c(C(=O)O)cn3[C@@H]2C[C@@H]2F)CC1N (some centres not stated),> 128

# System: Staphylococcus aureus
# Assay: Antibacterial activity against methicillin-sensitive Staphylococcus aureus 12-2 after 18 to 24 hrs by standard twofold serial dilution method
# Format: functional
row,SMILES,MIC [µg/mL]
1,CO/N=C1/CCN(c2nc3c(cc2F)c(=O)c(C(=O)O)cn3[C@@H]2C[C@@H]2F)CC1N (some centres not stated),2

# System: Staphylococcus epidermidis
# Assay: Antibacterial activity against methicillin-resistant Staphylococcus epidermidis 12-1 after 18 to 24 hrs by standard twofold serial dilution method
# Format: functional
row,SMILES,MIC [µg/mL]
1,CO/N=C1/CCN(c2nc3c(cc2F)c(=O)c(C(=O)O)cn3[C@@H]2C[C@@H]2F)CC1N (some centres not stated),> 128

# System: Streptococcus pneumoniae
# Assay: Antibacterial activity against Streptococcus pneumoniae ATCC 49619 after 18 to 24 hrs by standard twofold serial dilution method
# Format: functional
row,SMILES,MIC [µg/mL]
1,CO/N=C1/CCN(c2nc3c(cc2F)c(=O)c(C(=O)O)cn3[C@@H]2C[C@@H]2F)CC1N (some centres not stated),1
